Assay: xn = mol fraction of the nth substance listed
Settings: 101 kPa

CCC(=O)[O-].C[NH2+]Cc1ccccc1 + CN(C)C=O
viscosity [mPa·s]
Settings | 293.15 K | 298.15 K | 303.15 K | 308.15 K | 313.15 K | 318.15 K | 323.15 K | 328.15 K
x1 = 0.006359 | 0.956 | 0.914 | 0.877 | 0.845 | 0.816 | 0.79 | 0.766 | 0.745
x1 = 0.01185 | 0.969 | 0.926 | 0.888 | 0.854 | 0.824 | 0.797 | 0.772 | 0.75
x1 = 0.01701 | 0.989 | 0.944 | 0.902 | 0.866 | 0.835 | 0.807 | 0.781 | 0.758
x1 = 0.02175 | 1.007 | 0.958 | 0.915 | 0.878 | 0.845 | 0.815 | 0.788 | 0.764
x1 = 0.02663 | 1.016 | 0.966 | 0.922 | 0.884 | 0.85 | 0.819 | 0.792 | 0.768
x1 = 0.03255 | 1.045 | 0.991 | 0.944 | 0.903 | 0.866 | 0.834 | 0.805 | 0.779
x1 = 0.0357 | 1.057 | 1.001 | 0.953 | 0.911 | 0.874 | 0.841 | 0.812 | 0.786
x1 = 0.04024 | 1.072 | 1.015 | 0.965 | 0.921 | 0.882 | 0.848 | 0.818 | 0.791
